The values below come from US7704948B2, “Pharmaceutical composition” (Euro-Celtique S.A., priority 2001, dated 2010).

The nature of data set [1]: Stability of bisacodyl in poloxamer melt. In kind it is physicochemical. The conditions noted are these: hot melt of bisacodyl and poloxamer. An excerpt:
Such a product will have advantages with regard to dosage form and other properties. […] Furthermore production scale enteric coating of capsules containing a low melting point, waxy, solid is very difficult due to melting and leakage or softening and deformation of the waxy, low melting point poloxamer.

For data set [2] the following is noted: cited from earlier work.

Turning to `CC(=O)Oc1ccc(C(c2ccc(OC(C)=O)cc2)c2ccccn2)cc1` [Bisacodyl], the “stability of bisacodyl in poloxamer” value in data set [1] is reported as “unstable in poloxamer”. For the same compound, the “time to action in the large intestine” value in data set [2] (following oral administration) was 6 to 12 h. Moreover, the onset of action in data set [2] (suppositories) was 20 to 60 min.
